Test results reported in BigSolDB 2.1.

Br.Cc1ccc(Sc2ccccc2N2CCNCC2)c(C)c1
solubility (mole fraction)
Conditions | 283.15 K | 288.15 K | 293.15 K | 298.15 K | 303.15 K | 308.15 K | 313.15 K | 318.15 K
in 2-butanone | 6.2e-05 | 8.4e-05 | 0.000136 | 0.000163 | 0.00021 | 0.000267 | 0.000311 | 0.000338
in ethanol | 0.00123 | 0.00138 | 0.0015 | 0.00162 | 0.00199 | 0.00269 | 0.00297 | 0.00341
in n-butanol | 0.000582 | 0.000751 | 0.00086 | 0.00121 | 0.0017 | 0.00202 | 0.0023 | 0.00271
in n-propanol | 0.000934 | 0.00101 | 0.00115 | 0.00132 | 0.00178 | 0.00214 | 0.00245 | 0.00295
